The text below walks through data of ChEMBL document CHEMBL1201862, “PubChem BioAssay data set” (2004).

What all share (assay): growth of human tumour cells (NCI), 48 h
In assay [1] the test system is NCI-H522.
Assay [2] has as its system OVCAR-5.
For assay [3], the system named is SK-MEL-2.
The test system of assay [4] is SF-539.
Assay [5] has as its system MDA-N.
Assay [6] deals with HCC 2998.
Assay [7] relates to OVCAR-3.
Assay [8] has as its system MOLT-4.
The test system of assay [9] is T47D.
Assay [10] concerns RXF 393.
Assay [11] deals with MDA-MB-231.
Assay [12] has as its system NCI-H460.
Assay [13] deals with SN12C.
In assay [14] the test system is TK-10.
Assay [15] concerns SF-295.
In assay [16] the test system is SK-OV-3.
Assay [17] relates to NCI-H226.
Assay [18] has as its system Hs-578T.
Assay [19] concerns CCRF-CEM.
The test system of assay [20] is SW-620.

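Tested at 5 concentrations; 48 h exposure; 96-well plates; endpoints linearly interpolated, else capped at highest concentration. GI50 is the concentration that inhibits growth by half.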 The source made the active and inactive calls. Rule as the data show it: active = GI50 up to about 1.1 µM and inactive = higher. Where only a bound is given, the exact number is not on record here.

`c1ccc([P+](CC[P+](c2ccccc2)(c2ccccc2)c2ccccc2)(c2ccccc2)c2ccccc2)cc1`: the GI50 is 3.1 µM (inactive) in assay [1]; 44.4 µM (inactive) in [2]; 9.38 µM (inactive) in assay [3]; 9.42 µM (inactive) in [4]; 14.4 µM (inactive) in assay [5]; 7.78 µM (inactive) in assay [6]. Further, the GI50 in assay [7] is 13 µM (inactive); in assay [8], 12.6 µM (inactive); in assay [9], 4.34 µM (inactive); in assay [10], 27.4 µM (inactive); in assay [11] it was 38.6 µM (inactive); in [12], 5.79 µM (inactive). Also, the GI50 is 9.31 µM (inactive) in assay [13]; 12.3 µM (inactive) in assay [14]; 33.7 µM (inactive) in [15]; > 84.9 µM (inactive) in assay [16]; > 56.8 µM (inactive) in [17]; 7.98 µM (inactive) in assay [18]. Further, the GI50 in assay [19] is 0.25 µM (active); in assay [20], 3.62 µM (inactive).

Turning to `O=CN1CCN(C(=O)c2ccc(Cl)cc2Cl)C1=S`, the GI50 is 20.3 µM (inactive) in assay [1]; > 100 µM (inactive) in assay [2]; > 100 µM (inactive) in assay [3]; > 100 µM (inactive) in assay [4]; 64.6 µM (inactive) in assay [5]; > 100 µM (inactive) in [6]. In addition, the GI50 in assay [7] is 40.3 µM (inactive); in assay [8], > 100 µM (inactive); in assay [9], 32.4 µM (inactive); in assay [10] it was 29.3 µM (inactive); in assay [11], > 100 µM (inactive); in [12], > 100 µM (inactive). Besides, the GI50 was 43 µM (inactive) in assay [13]; 78.7 µM (inactive) in [14]; > 100 µM (inactive) in assay [15]; > 100 µM (inactive) in assay [16]; > 100 µM (inactive) in assay [17]; 32.4 µM (inactive) in assay [18]. The GI50 in [19] was 27.5 µM (inactive); in assay [20], 77.8 µM (inactive).

`NC(=O)Cc1nc2c(O)ncnc2n1C1OC(CO)C(O)C1O` (stereo not given): the GI50 in assay [1], in [2], in assay [3], in assay [4], in assay [5] and in [6] was > 100 µM (inactive) throughout. For the same compound, the GI50 in assay [7], in assay [8], in assay [9], in assay [10], in [11] and in assay [12] was > 100 µM (inactive) throughout. Further, the GI50 in assay [13], in assay [14], in [15], in [16], in [17] and in assay [18] was > 100 µM (inactive) in each case. For the same compound, the GI50 in assay [19] and in assay [20] was > 100 µM (inactive) throughout.

As to `COC1CC(NC(=O)C(F)(F)F)C(OC(C)=O)C(C)O1` (stereo not given), the GI50 in assay [1], in assay [2], in assay [3], in assay [4], in assay [5] and in [6] was > 100 µM (inactive) in each case. The GI50 in assay [7], in assay [8], in [9], in [10], in assay [11] and in assay [12] was > 100 µM (inactive) in each case. For the same compound, the GI50 in assay [13] is > 100 µM (inactive); in assay [14], > 100 µM (inactive); in assay [15], > 100 µM (inactive); in assay [16], > 100 µM (inactive); in [17] it was 66.5 µM (inactive); in [18] it was > 100 µM (inactive). For the same compound, the GI50 in [19] and in assay [20] was > 100 µM (inactive) each time.

Regarding `COC(=O)C1CC2C=CC1N(C(=O)OCc1ccccc1)C2` (stereo not given), the GI50 is 0.82 µM (active) in assay [1]; > 100 µM (inactive) in assay [2]; > 100 µM (inactive) in assay [3]; > 100 µM (inactive) in [4]; > 100 µM (inactive) in assay [5]; > 100 µM (inactive) in [6]. For the same compound, the GI50 in assay [7] is > 100 µM (inactive); in assay [8], 81.3 µM (inactive); in assay [9], 85.7 µM (inactive); in assay [10], > 100 µM (inactive); in assay [11], > 100 µM (inactive); in assay [12], > 100 µM (inactive). In addition, the GI50 in assay [13], in assay [14], in [15], in assay [16], in [17] and in assay [18] was > 100 µM (inactive) each time. The GI50 in assay [19] and in assay [20] was > 100 µM (inactive) each time.

With `Nc1n[nH]c(N)n1` [GUANAZOLE], the GI50 in assay [1] was 2680 µM (inactive); in assay [2], 4980 µM (inactive); in assay [3], > 9790 µM (inactive); in [4], 2510 µM (inactive); in assay [5], 8570 µM (inactive); in assay [6], 6900 µM (inactive). Further, the GI50 was > 10000 µM (inactive) in assay [7]; 3170 µM (inactive) in [8]; > 9160 µM (inactive) in assay [9]; 6820 µM (inactive) in assay [10]; > 10000 µM (inactive) in assay [11]; 3270 µM (inactive) in assay [12]. Moreover, the GI50 in assay [13] is 4930 µM (inactive); in [14] it was > 10000 µM (inactive); in [15], 2360 µM (inactive); in assay [16] it was 3210 µM (inactive); in assay [17] it was 5860 µM (inactive); in assay [18], > 10000 µM (inactive). In addition, the GI50 in assay [19] was 1720 µM (inactive); in assay [20], > 9380 µM (inactive).
